For orientation: IC50 means the concentration needed to halve the response being measured.

Series [1] addresses V600E-B-RAF (Homo sapiens (Human), UniProt P15056, V600E). As to the kind of experiment: Protein kinase enzymatic activity (Reaction Biology kinase hotspot), V600E-B-RAF. Conditions: for IC50: read-out: Inhibitory effect against kinase activity of V600E-B-RAF (IC50); for Inhibitory effect against enzymatic activity of V600E-RAF, in words: compared with GW5074 and vemurafenib. The class given is biochemical. On the procedure: (§1) Reaction biology kinase hotspot service (http://www.reactionbiology.com) was used to measure IC50. In a final reaction volume of 25 μL, kinase (5 mU to 10 mU) was incubated with 25 mM Tris (pH 7.5), 0.02 mM EGTA, 0.66 mg/ml of myelin basic protein, 10 mM magnesium acetate, and [^33P-ATP] (specific activity of about 500 CPM/pmol, concentration as required). The reaction was initiated by addition of Mg-ATP mix. After incubation for 40 min at room temperature, the reaction was stopped by addition of 5 μl of a 3% phosphoric acid solution. 10 μL of the reaction was then spotted onto a P30 filtermat and washed three times for 5 minutes in 75 mM phosphoric acid and once in methanol prior to drying and scintillation counting.

Series [2] addresses C-RAF (Homo sapiens (Human), UniProt P04049). In words: Protein kinase enzymatic activity (Reaction Biology kinase hotspot), C-RAF. The class given is biochemical. Conditions: for Inhibitory effect against enzymatic activity of C-RAF, in words: compared with GW5074 and vemurafenib; for IC50: read-out: Inhibitory effect against kinase activity of C-RAF (IC50). The procedure: as §1

The target of series [3] is B-RAF (Homo sapiens (Human), UniProt P15056). As to the kind of experiment: Protein kinase enzymatic activity (Reaction Biology kinase hotspot), B-RAF. Conditions: for Inhibitory effect against enzymatic activity of B-RAF, in words: compared with GW5074 and vemurafenib; for IC50: read-out: Inhibitory effect against kinase activity of B-RAF (IC50). The class given is biochemical. On the procedure: as §1

The test system of series [4] is A375P cell line xenograft. As to the kind of experiment: Tumor-inhibitory effects in melanoma xenograft mouse model. The class given is in vivo, nude mice. On the procedure:
In this experiment, A375P cell line which is a human-derived malignant melanoma cell line was subcutaneously administered to nude mice to prepare xenograft models, and the test material (compound 2II) was administered to the xenograft models to evaluate anti-cancer effects (G1: an excipient control group, G2: a group administered with 20 mg/kg/day of the test material, and G3: a group administered with 50 mg/kg/day of the test material).

C-RAF, sequence (P04049 whole entry): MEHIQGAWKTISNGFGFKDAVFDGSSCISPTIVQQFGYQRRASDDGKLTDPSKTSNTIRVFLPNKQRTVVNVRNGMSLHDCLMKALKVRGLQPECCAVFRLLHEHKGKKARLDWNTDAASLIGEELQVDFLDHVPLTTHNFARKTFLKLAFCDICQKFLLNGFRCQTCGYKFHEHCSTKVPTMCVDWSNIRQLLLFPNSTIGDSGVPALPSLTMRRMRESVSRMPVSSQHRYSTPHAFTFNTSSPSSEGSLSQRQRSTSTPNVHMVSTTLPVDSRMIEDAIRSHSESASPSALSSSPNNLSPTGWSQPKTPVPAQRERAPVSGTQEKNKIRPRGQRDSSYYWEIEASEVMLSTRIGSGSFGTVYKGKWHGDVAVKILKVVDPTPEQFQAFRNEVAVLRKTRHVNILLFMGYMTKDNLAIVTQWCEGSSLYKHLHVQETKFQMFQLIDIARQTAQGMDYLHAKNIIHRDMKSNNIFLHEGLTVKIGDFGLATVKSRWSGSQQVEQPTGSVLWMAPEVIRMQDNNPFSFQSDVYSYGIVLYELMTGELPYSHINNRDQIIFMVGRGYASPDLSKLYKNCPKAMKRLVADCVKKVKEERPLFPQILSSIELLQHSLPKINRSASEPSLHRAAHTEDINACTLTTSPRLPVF
V600E-B-RAF, sequence (P15056 whole entry V600E): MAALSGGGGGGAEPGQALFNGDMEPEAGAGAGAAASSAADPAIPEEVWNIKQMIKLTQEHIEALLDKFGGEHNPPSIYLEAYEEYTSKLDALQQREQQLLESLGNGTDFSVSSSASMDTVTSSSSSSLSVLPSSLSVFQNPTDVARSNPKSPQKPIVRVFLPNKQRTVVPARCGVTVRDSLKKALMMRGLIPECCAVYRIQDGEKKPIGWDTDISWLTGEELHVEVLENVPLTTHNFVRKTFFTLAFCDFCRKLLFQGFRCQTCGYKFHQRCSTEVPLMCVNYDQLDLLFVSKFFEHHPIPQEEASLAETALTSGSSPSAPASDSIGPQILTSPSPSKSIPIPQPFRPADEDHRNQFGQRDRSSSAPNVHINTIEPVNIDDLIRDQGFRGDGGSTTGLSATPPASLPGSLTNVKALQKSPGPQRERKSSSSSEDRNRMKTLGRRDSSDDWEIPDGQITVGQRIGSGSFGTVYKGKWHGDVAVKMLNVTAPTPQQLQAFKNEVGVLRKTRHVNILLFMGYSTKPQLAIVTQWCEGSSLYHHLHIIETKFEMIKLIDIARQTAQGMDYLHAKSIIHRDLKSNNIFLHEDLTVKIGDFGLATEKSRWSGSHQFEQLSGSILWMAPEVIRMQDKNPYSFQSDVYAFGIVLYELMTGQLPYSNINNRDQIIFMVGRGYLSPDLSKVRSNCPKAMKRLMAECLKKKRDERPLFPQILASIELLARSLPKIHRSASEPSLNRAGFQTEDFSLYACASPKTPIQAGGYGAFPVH
B-RAF, sequence (P15056 whole entry): as the sequence (P15056 whole entry V600E) above, with E600V counted along it

On to `COc1cc(-c2nc3occn3c2-c2ccnc(NCCCNS(=O)(=O)c3ccc(Cl)cc3)n2)ccc1F` [60 IV, 4-chloro-N-(3-(4-(6-(4-fluoro-3-methoxyphenyl)imidazo[2,1-b]oxazol-5-yl)pyrimidin-2-ylamino)propyl)benzenesulfonamide], for which, in series [1], the IC50 was 11.3 nM.

In the case of `O=S(=O)(NCCNc1nccc(-c2c(-c3ccc(F)c(O)c3)nc3occn23)n1)c1ccc(F)cc1` [64 IV, 4-fluoro-N-(2-(4-(6-(4-fluoro-3-hydroxyphenyl)imidazo[2,1-b]oxazol-5-yl)pyrimidin-2-ylamino)ethyl)benzenesulfonamide], the concentration for half-maximal inhibition (IC50) in series [1] was 0.36 nM.

Turning to `O=S(=O)(NCCNc1nccc(-c2c(-c3ccc(F)c(O)c3)nc3occn23)n1)c1ccc(Cl)cc1` [65 IV, 4-chloro-N-(2-(4-(6-(4-fluoro-3-hydroxyphenyl)imidazo[2,1-b]oxazol-5-yl)pyrimidin-2-ylamino)ethyl)benzenesulfonamide], the IC50 in series [1] was 0.37 nM.

Consider `O=S(=O)(NCCCNc1nccc(-c2c(-c3ccc(F)c(O)c3)nc3occn23)n1)c1ccc(Cl)cc1` [70 IV, 4-chloro-N-(3-(4-(6-(4-fluoro-3-hydroxyphenyl)imidazo[2,1-b]oxazol-5-yl)pyrimidin-2-ylamino)propyl)benzenesulfonamide], for which the IC50 in series [1] came out at 0.15 nM.

On to `COc1ccc(S(=O)(=O)NCCCNc2nccc(-c3c(-c4ccc(F)c(O)c4)nc4occn34)n2)cc1` [72 IV, N-(3-(4-(6-(4-fluoro-3-hydroxyphenyl)imidazo[2,1-b]oxazol-5-yl)pyrimidin-2-ylamino)propyl)-4-methoxybenzenesulfonamide], for which the IC50 in series [1] is 0.08 nM.

Turning to `O=S(=O)(NCCCNc1nccc(-c2c(-c3ccc(F)c(O)c3)nc3occn23)n1)c1ccccc1` [73 IV, N-(3-(4-(6-(4-fluoro-3-hydroxyphenyl)imidazo[2,1-b]oxazol-5-yl)pyrimidin-2-ylamino)propyl)benzenesulfonamide], the 50% inhibitory concentration (IC50) in series [1] is 0.16 nM.

As for `CN1CCN(CCNc2nccc(-c3c(-c4cccc(O)c4)nc4occn34)n2)S1(=O)=O` [Compound 1II, 2-(2-((4-(6-(3-Hydroxylphenyl)imidazo[2,1-b]oxazol-5-yl)pyrimidin-2-yl)amino)ethyl)-5-methyl-1,2,5-thiadiazolidine 1,1-dioxide], in series [2], the “Inhibitory effect against enzymatic activity of C-RAF, in words” value (“Inhibitory effect … of C-RAF, in words” below) was “excellent inhibitory effects” and the half-inhibitory concentration (IC50) worked out at 2.95 nM. The “Inhibitory effect against enzymatic activity of B-RAF, in words” value (from here on “Inhibitory effect … of B-RAF, in words”) in series [3] is on record as “excellent inhibitory effects”. Also, in series [1], the “Inhibitory effect against enzymatic activity of V600E-RAF, in words” value (shortened to “Inhibitory effect … of V600E-RAF, in words”) is reported as “excellent inhibitory effects”.

Take `CCN1CCN(CCNc2nccc(-c3c(-c4cccc(O)c4)nc4occn34)n2)S1(=O)=O` [Compound 2II, 2-Ethyl-5-(2-((4-(6-(3-hydroxylphenyl)imidazo[2,1-b]oxazol-5-yl)pyrimidin-2-yl)amino)ethyl)-1,2,5-thiadiazolidine 1,1-dioxide]: in series [2], the “Inhibitory effect … of C-RAF, in words” value is on record as “excellent inhibitory effects” and the 50% inhibitory concentration (IC50) came out at 0.75 nM. The “Inhibitory effect … of B-RAF, in words” value in series [3] is on record as “excellent inhibitory effects”. The “General symptoms and deaths” value in series [4] (20 and 50 mg/kg/day, twice per week for 3 weeks) is given as “no deaths or no abnormalities in general symptoms were observed”. Moreover, in series [4] (G1, G2, G3), the “Tumor size, difference between all experimental groups” value is reported as “no significant difference”. In addition, the “Body weight compared with control group (G1)” value in series [4] (G3, 50 mg/kg/day, 14 days and 21 days after administration) was “significantly low”. In addition, in series [4] (groups administered with 20 and 50 mg/kg/day), the “Increase of the tumor size” value is on record as “inhibited in a dose-dependent manner”. Besides, the “Inhibitory effect … of V600E-RAF, in words” value in series [1] was “excellent inhibitory effects”.

In the case of `O=S(=O)(NCCNc1nccc(-c2c(-c3cccc(O)c3)nc3sccn23)n1)c1ccc(F)cc1` [Compound 25III, 4-Fluoro-N-(2-((4-(6-(3-hydroxylphenyl)imidazo[2,1-b]thiazol-5-yl)pyrimidin-2-yl)amino)ethyl)benzenesulfonamide], in series [2], the “Inhibitory effect … of C-RAF, in words” value was “excellent inhibitory effects”. The “Inhibitory effect … of B-RAF, in words” value in series [3] is on record as “excellent inhibitory effects”. The “Inhibitory effect … of V600E-RAF, in words” value in series [1] is recorded as “excellent inhibitory effects”.

As for `O=S(=O)(NCCCNc1nccc(-c2c(-c3cccc(O)c3)nc3sccn23)n1)c1ccc(F)cc1` [Compound 31III, 4-Fluoro-N-(3-((4-(6-(3-hydroxylphenyl)imidazo[2,1-b]thiazol-5-yl)pyrimidin-2-yl)amino)propyl)benzenesulfonamide], the “Inhibitory effect … of C-RAF, in words” value in series [2] is “excellent inhibitory effects”. Further, the “Inhibitory effect … of B-RAF, in words” value in series [3] is “excellent inhibitory effects”. The “Inhibitory effect … of V600E-RAF, in words” value in series [1] is “excellent inhibitory effects”.

For `CCN1CCN(CCNc2nccc(-c3c(-c4ccc(F)c(O)c4)nc4sccn34)n2)S1(=O)=O` [Compound 31II], the IC50 in series [2] turned out to be 7.83 nM; in series [3] it was 4.19 nM; in series [1], 0.98 nM.

For the compound `COc1cc(-c2nc3sccn3c2-c2ccnc(NCCCNS(=O)(=O)c3ccc(F)cc3)n2)ccc1F` [Compound 37III, 4-Fluoro-N-(3-((4-(6-(4-fluoro-3-methoxyphenyl)imidazo[2,1-b]thiazol-5-yl)pyrimidin-2-yl)amino)propyl)benzenesulfonamide], the IC50 in series [2] is 13.8 nM; in series [3], 8.8 nM; in series [1] it was 1.66 nM.

Take `COc1cc(-c2nc3sccn3c2-c2ccnc(NCCCNS(=O)(=O)c3ccc(Cl)cc3)n2)ccc1F` [Compound 38III, 4-chloro-N-(3-(4-(6-(4-fluoro-3-methoxyphenyl)imidazo[2,1-b]thiazol-5-yl)pyrimidin-2-ylamino)propyl)benzenesulfonamide]: the IC50 in series [1] came out at 1.89 nM.

On to `O=S(=O)(NCCCNc1nccc(-c2c(-c3ccc(F)c(O)c3)nc3sccn23)n1)c1ccc(F)cc1` [Compound 42III, 4-Fluoro-N-(3-((4-(6-(4-fluoro-3-hydroxyphenyl)imidazo[2,1-b]thiazol-5-yl)pyrimidin-2-yl)amino)propyl)benzenesulfonamide], for which the IC50 in series [1] stood at 0.36 nM.

As for `O=S(=O)(NCCNc1nccc(-c2c(-c3ccc(F)c(O)c3)nc3sccn23)n1)c1ccc(Cl)cc1` [Compound 43III, 4-chloro-N-(2-(4-(6-(4-fluoro-3-hydroxyphenyl)imidazo[2,1-b]thiazol-5-yl)pyrimidin-2-ylamino)ethyl)benzenesulfonamide], the IC50 in series [1] was 6.96 nM.

Take `O=S(=O)(NCCNc1nccc(-c2c(-c3ccc(F)c(O)c3)nc3sccn23)n1)c1ccccc1` [Compound 46III, N-(2-(4-(6-(4-fluoro-3-hydroxyphenyl)imidazo[2,1-b]thiazol-5-yl)pyrimidin-2-ylamino)ethyl)benzenesulfonamide]: in series [1], the IC50 turned out to be 0.15 nM.

On to `O=S(=O)(NCCCNc1nccc(-c2c(-c3ccc(F)c(O)c3)nc3sccn23)n1)c1ccc(Cl)cc1` [Compound 48III, 4-chloro-N-(3-(4-(6-(4-fluoro-3-hydroxyphenyl)imidazo[2,1-b]thiazol-5-yl)pyrimidin-2-ylamino)propyl)benzenesulfonamide], for which the IC50 in series [1] stood at 0.27 nM.

For the compound `COc1ccc(S(=O)(=O)NCCCNc2nccc(-c3c(-c4ccc(F)c(O)c4)nc4sccn34)n2)cc1` [Compound 50III, N-(3-(4-(6-(4-fluoro-3-hydroxyphenyl)imidazo[2,1-b]thiazol-5-yl)pyrimidin-2-ylamino)propyl)-4-methoxybenzenesulfonamide], the IC50 in series [1] worked out at 0.05 nM.

Take `Nc1cc(-c2nc3sccn3c2-c2ccnc(NCCCNS(=O)(=O)c3ccc(F)cc3)n2)ccc1F` [Compound 52III, N-(3-((4-(6-(3-amino-4-fluorophenyl)imidazo[2,1-b]thiazol-5-yl)pyrimidin-2-yl)amino)propyl)-4-fluorobenzenesulfonamide]: the values for the concentration for half-maximal inhibition (IC50) in series [2], in series [3] and in series [1] were 5.41 nM, 2.68 nM and 1.03 nM, respectively.

These data come from patent publication US11332479B2, “Imidazooxazole derivative having antitumor effect, and pharmaceutical composition including same” (KOREA INSTITUTE OF SCIENCE AND TECHNOLOGY, priority 2016, dated 2022).
